Reference: PubChem BioAssay (NCI)
Values joined by “and” are separate entries in the source; they are usually repeats but may differ in a detail not shown here. Identical values can stand only once.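 1) Cells in 96-well plates. 2) Compound, 48 h, 5 concentrations. 3) Linear interpolation between surrounding doses. 4) Unreached endpoint = highest concentration. GI50 is the concentration that inhibits growth by half. TGI marks complete inhibition of growth.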

How the values were obtained:
Assay in all cases: growth of human tumour cells (NCI), 48 h
M14 melanoma = system: M14 melanoma
HOP-92 NSCLC = system: HOP-92 NSCLC
RXF 393 renal = system: RXF 393 renal
BT-549 breast = system: BT-549 breast
IGROV1 ovarian = system: IGROV1 ovarian
UACC-62 melanoma = system: UACC-62 melanoma
SNB-19 CNS = system: SNB-19 CNS
A549 NSCLC = system: A549 NSCLC
UO-31 renal = system: UO-31 renal
SF-539 CNS = system: SF-539 CNS
MOLT-4 leukemia = system: MOLT-4 leukemia

| Structure (SMILES) | TGI (M14 melanoma) [µM] | TGI (HOP-92 NSCLC) | TGI (RXF 393 renal) [µM] | TGI (BT-549 breast) [µM] | TGI (IGROV1 ovarian) [µM] | TGI (UACC-62 melanoma) | TGI (SNB-19 CNS) [µM] | TGI (A549 NSCLC) [µM] | TGI (UO-31 renal) [µM] | GI50 (HOP-92 NSCLC) [µM] | GI50 (RXF 393 renal) [µM] | GI50 (BT-549 breast) [µM] | GI50 (UACC-62 melanoma) [µM] | GI50 (SF-539 CNS) [µM] | TGI (SF-539 CNS) [µM] | GI50 (SNB-19 CNS) [µM] | GI50 (UO-31 renal) [µM] | TGI (MOLT-4 leukemia) [µM] | GI50 (MOLT-4 leukemia) [µM] |
| --- | --- | --- | --- | --- | --- | --- | --- | --- | --- | --- | --- | --- | --- | --- | --- | --- | --- | --- | --- |
| CC(C)(C)/C(O)=C\c1nc2cc(C(F)(F)F)ccc2[nH]c1=O | > 100 | > 100 µM | > 100 | > 100 | > 100 | > 100 µM | > 100 | > 100 | > 100 | – | – | – | – | – | – | – | – | – | – |
| O=C(CCN1CCCC1)Nc1ccc2c(NCCCc3ccccc3)c3ccccc3nc2c1 | – | 2.24 µM | 2.2 | 3.11 | – | 2.93 µM | 2 | – | 3.16 | 0.875 | 0.918 | 1.61 | 1.54 | 1.24 | 2.55 | 0.729 | 1.6 | – | – |
| O=[N+]([O-])C1(C2([N+](=O)[O-])CCCC2)CCCC1 | > 100 | – | > 100 | > 100 | > 100 | > 100 µM | > 100 | > 100 | > 100 | – | – | – | – | – | > 100 | – | – | > 100 | – |
| O=C(O)c1ccccc1/C=N\NC1=NCCN1 | > 100 | > 100 µM | – | > 100 | > 100 | > 100 µM | > 100 | > 100 | > 100 | – | – | – | – | – | > 100 | – | – | > 100 | – |
| CCN1/C(=C/C(C)=C/c2sc3ccccc3[n+]2CC)Sc2ccccc21 | 0.847 | 0.338 µM | 1.59 | – | 2 | 1.21 µM | 0.0976 | 1.42 | 1.47 | – | – | – | – | – | 1.11 | – | – | 1.15 | – |
| C[N+]1(C)CN(c2ccccc2)C2(CCN(CCCC(=O)c3cccs3)CC2)C1=O | 51.9 | > 100 µM | > 100 | – | > 100 | > 100 µM | > 100 | > 100 | > 100 | – | – | – | – | – | > 100 | – | – | > 100 | – |
| CCCc1c2c3ccccc3nc-2nc2ccccn12 | > 100 | > 100 µM | – | > 100 | > 100 | > 100 µM | > 100 | > 100 | > 100 | – | – | – | – | – | > 100 | – | – | > 100 | – |
| O=C(O)CCC1(c2ccccc2)NC(=O)NC1=O (stereo not given) | > 100 | > 100 µM | > 100 | > 100 | > 100 | > 100 µM | > 100 | > 100 | – | – | – | – | – | – | > 100 | – | – | – | – |
| Nc1ncc(Cc2nc3ccccc3s2)s1 | > 100 | > 100 µM | > 100 | – | > 100 | > 100 µM | > 100 | > 100 | > 100 | – | – | – | – | – | > 100 | – | – | > 100 | – |
| C=C1C(=O)OC2/C=C(\C)C(O)/C=C\C(C)(O)CC(OC(=O)/C(C)=C/C)C12 (stereo not given) | 32.7 | 77.5 µM | 42.6 | – | > 100 | 32.6 µM | 98.8 | > 100 | > 100 | – | – | – | – | – | 20.7 | – | – | 53.8 | – |
| COc1cc2c(cc1OC)CCN=C2 | > 100 | > 100 µM | > 100 | > 100 | > 100 | > 100 µM | > 100 | – | > 100 | – | – | – | – | – | – | – | – | > 100 | – |
| Cc1n[nH]c(=O)n1N=C(c1ccccc1)c1ccccc1 | > 100 | > 100 µM | > 100 | > 100 | > 100 | > 100 µM | > 100 | > 100 | > 100 | – | – | – | – | – | – | – | – | > 100 | – |
| CC(=O)Oc1c(OC(C)=O)c(-c2ccc(O)c(O)c2)c(O)c(O)c1-c1ccc(O)cc1 | – | > 100 µM and 96.6 µM | > 100 | – | > 100 | 45.4 µM and 75.5 µM | > 100 | > 100 | > 100 | 60.8 | > 100 | – | 21.7 | – | > 100 | – | – | > 100 | 53.6 |
| C/C(=N\Nc1ccc([N+](=O)[O-])cc1)C(=O)N(C)Nc1ccccc1 | > 100 | > 100 µM | > 100 | – | > 100 | > 100 µM | > 100 | > 100 | > 100 | – | – | – | – | – | > 100 | – | – | > 100 | – |
| Cc1ccc(S(=O)(=O)N/N=C2\C=C[C@]3(CC2)C(=O)N(C)c2ccccc23)cc1 | > 100 | > 100 µM | > 100 | – | > 100 | > 100 µM | > 100 | > 100 | > 100 | – | – | – | – | – | – | – | – | > 100 | – |
| CSCCCCCCCCCCOc1ccc(C=C2C(=C(C#N)C#N)c3ccccc3C2=C(C#N)C#N)cc1 | 32.1 | 26.9 µM | 35.1 | – | 34.7 | – | – | – | 29.9 | – | – | – | – | – | 37.3 | – | – | 64.5 | – |
| COc1ccc(NC2=NCCO2)c2ccccc12 | > 10 | – | > 10 | – | > 10 | > 10 µM | > 10 | > 10 | > 10 | – | – | – | – | – | > 10 | – | – | > 10 | – |
| CC1(C)CC(=O)c2c(nc3ccc4ccccc4c3c2-c2ccc(NC(=O)CCCCC(=O)Nc3ccc(-c4c5c(nc6ccc7ccccc7c46)CC(C)(C)CC5=O)cc3)cc2)C1 | > 100 | > 100 µM | – | > 100 | > 100 | > 100 µM | > 100 | > 100 | > 100 | – | – | – | – | – | > 100 | – | – | > 100 | – |
| S=C1C=C(c2ccccc2)Sc2ccccc2N1 | > 100 | – | > 100 | > 100 | > 100 | > 100 µM | > 100 | > 100 | > 100 | – | – | – | – | – | – | – | – | > 100 | – |
| CCOC(=O)c1c(SCCO)n(-c2ccccc2)c(=S)n(-c2ccccc2)c1=O | > 100 | > 100 µM | – | > 100 | > 100 | > 100 µM | > 100 | > 100 | > 100 | – | – | – | – | – | – | – | – | > 100 | – |
| CCCCCCCCCN1CCC(=O)C(C(=O)OC)C1 (stereo not given) | 29.2 | 33.9 µM | 32.7 | – | – | 24.9 µM | – | 30.7 | 22 | – | – | – | – | – | 36.5 | – | – | 54.6 | – |
| O=c1c([Se]c2coc3ccccc3c2=O)coc2ccccc12 | 28.2 | 31.7 µM | 29.5 | – | 22.3 | 30.9 µM | 27.4 | 20.9 | 26.3 | – | – | – | – | – | 24.2 | – | – | 48.2 | – |
